Laboratory results from US20260085062A1, “NOVEL COMPOUNDS AS CK2 INHIBITORS” (Cambridge Enterprise Limited, priority 2022, published 2026).
Values belong to the compound of their own block, whether it stands above or below them.

How the values were obtained:
CK2α = target: T1, CK2α (Homo sapiens, UniProt P68400); test: Biochemical assay for inhibitors of CK2α kinase activity (ADP-Glo); conditions: 0.2 nM CK2α, 50 μM peptide substrate, 15 μM ATP, read-out: Assay 1: CK2α Enzyme IC50
T1 construct: CK2α (residues 2-329) was produced in Escherichia coli BL21 (DE3) for kinase activity screening; His6 (N, cleaved yes); made in house; host or cells: Escherichia coli BL21 (DE3)
T1 sequence (P68400 2-329): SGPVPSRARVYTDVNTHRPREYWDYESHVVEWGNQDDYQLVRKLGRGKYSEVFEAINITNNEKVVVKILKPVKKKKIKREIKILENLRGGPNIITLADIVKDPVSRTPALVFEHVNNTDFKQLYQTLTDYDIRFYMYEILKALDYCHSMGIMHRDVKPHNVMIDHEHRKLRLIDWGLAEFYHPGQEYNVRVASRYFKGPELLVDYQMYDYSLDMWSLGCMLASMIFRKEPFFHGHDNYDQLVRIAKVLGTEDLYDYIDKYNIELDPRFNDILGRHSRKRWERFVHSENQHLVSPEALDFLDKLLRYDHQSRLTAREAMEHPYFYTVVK
Protocol: The inhibitory activity of putative kinase inhibitors and the potency of selected compounds were determined using ADP-Glo™ assay. The kinase reaction was performed in the presence of excess peptide substrate and ATP at a concentration equivalent to Km. Upon termination of the kinase reaction, remaining ATP was depleted leaving only ADP reaction product, which was converted back to ATP with a coupled luciferin/luciferase reaction. The luminescent output from the coupled reaction was quantified and correlated with the kinase activity. […] Single colonies of the cells were grown in 6×1 L of 2×TY with 100 μg/mL ampicillin at 37° C. […] The cells were incubated overnight at 25° C. then harvested by centrifugation at 4,000 g for 20 minutes. The cell pellets were suspended in 20 mM Tris, 500 mM NaCl, pH 8.0 and lysed using a high pressure homogenizer. Protease inhibitor cocktail tablets (one tablet per 50 mL extract; Roche Diagnostics) and DNase I were then added. The crude cell extract was then centrifuged at 10,000 g for 45 minutes, the supernatant was filtered with a 0.22 μm filter. The soluble supernatant was applied on a Ni Sepharose Fast Flow6 column at pH 8.0, washed and eluted in 20 mM Tris pH 8.0, 500 mM NaCl, 200 mM imidazole. […] The cleaved protein was further purified on a Sepharose Q HP anion-exchange column and the main peak fraction from this column was further purified by gel filtration on a Superdex 75 16/60 HiPrep column equilibrated with Tris 20 mM, pH 8.0, 500 mM NaCl. Pure protein was concentrated to 15 mg/mL and flash frozen in liquid nitrogen. […] The assay was conducted as follows: • 1. […] After 120 minutes, the reaction was stopped by addition of 5 pl ADP-Glo reagent (Promega V9102) and the plate incubated at RT for a further 60 minutes. • 5. 10 μL of Kinase Detection reagent (Promega V9102) was added to assay plate and incubated for a further 30 minutes prior to reading luminescence on an Envision (Perkin-Elmer). Data was analysed to calculate compound IC50and Ki as follows: • 1. […] Percent activity was calculated for each well using: (Test well reading−MEAN100%inhibition control wells)/(MEAN0% inhibition control wells−MEAN100%inhibition control wells). • 5. Morrison Ki was determined using Morrison Ki equation (XL-fit).

CLK2 = target: T2, CLK2 (Homo sapiens, UniProt P49760); test: Biochemical assay for inhibitors of CLK2 kinase activity (ADP-Glo); conditions: 20 nM CLK2, 50 μM peptide substrate, 100 μM ATP, read-out: Assay 2: CLK2 Enzyme IC50
T2 construct: purchased Carna Biosciences 04-127
T2 sequence (P49760 whole entry): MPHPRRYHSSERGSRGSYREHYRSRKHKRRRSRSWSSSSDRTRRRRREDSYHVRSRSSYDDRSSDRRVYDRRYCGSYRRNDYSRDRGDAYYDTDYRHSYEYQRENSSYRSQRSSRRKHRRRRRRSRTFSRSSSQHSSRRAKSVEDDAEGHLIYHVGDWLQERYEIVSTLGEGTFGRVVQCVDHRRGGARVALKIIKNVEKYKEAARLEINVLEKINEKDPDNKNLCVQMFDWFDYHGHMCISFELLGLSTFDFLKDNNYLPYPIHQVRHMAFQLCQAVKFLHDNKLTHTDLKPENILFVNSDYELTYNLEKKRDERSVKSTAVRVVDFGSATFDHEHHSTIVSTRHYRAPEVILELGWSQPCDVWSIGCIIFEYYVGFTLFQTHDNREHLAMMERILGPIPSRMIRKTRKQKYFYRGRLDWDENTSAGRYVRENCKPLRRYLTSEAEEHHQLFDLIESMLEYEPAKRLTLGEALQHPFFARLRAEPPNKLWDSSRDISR
Protocol: The inhibitory activity of putative kinase inhibitors and the potency of selected compounds were determined using ADP-GloTM assay. The kinase reaction was performed in the presence of excess peptide substrate and ATP at a concentration equivalent to Km. Upon termination of the kinase reaction, remaining ATP was depleted leaving only ADP reaction product, which was converted back to ATP with a coupled luciferin/luciferase reaction. The luminescent output from the coupled reaction was quantified and correlated with the kinase activity. […] The assay was conducted as follows: • 1. […] After 120 minutes, the reaction was stopped by addition of 5 pl ADP-Glo reagent (Promega V9102) and the plate incubated at RT for a further 60 minutes. • 5. 10 μL of Kinase Detection reagent (Promega V9102) was added to assay plate and incubated for a further 30 minutes prior to reading luminescence on an Envision (Perkin-Elmer). Data was analysed to calculate compound IC50and Ki as follows: • 1. […] Morrison Ki was determined using Morrison Ki equation (XL-fit).

intracellular CK2α = target: T3, intracellular CK2α (Homo sapiens, UniProt P19784); test: Cell-based NanoBRET assay for inhibitor binding to intracellular CK2α; conditions: HCT116 cells transiently transfected with CSNK2A2-NanoLuc fusion vector; Tracer K-5; 2 h; read-out: Assay 3: NanoBRET ™ assay for binding to intracellular CK2α
T3 construct: host or cells: HCT116 (ATCC CCL-247)
T3 sequence (P19784 whole entry, the tested form may be a part): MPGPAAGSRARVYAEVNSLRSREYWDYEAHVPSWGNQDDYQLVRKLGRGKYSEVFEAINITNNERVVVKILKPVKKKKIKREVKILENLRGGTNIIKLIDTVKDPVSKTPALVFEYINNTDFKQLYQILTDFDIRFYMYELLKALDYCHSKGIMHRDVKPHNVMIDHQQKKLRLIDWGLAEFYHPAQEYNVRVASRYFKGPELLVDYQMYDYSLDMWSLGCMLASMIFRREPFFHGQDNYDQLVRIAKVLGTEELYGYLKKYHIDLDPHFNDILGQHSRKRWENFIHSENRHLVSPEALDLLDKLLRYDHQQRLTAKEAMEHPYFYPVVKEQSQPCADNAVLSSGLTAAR
Protocol: This assay used the NanoBRET™ System (Promega), an energy transfer technique designed to measure molecular proximity in living cells. The assay measured the apparent affinity of test compounds by competitive displacement of a NanoBRET™ tracer reversibly bound to a NanoLucR luciferase CK2α fusion protein in cells. A fixed concentration of tracer was added to cells expressing the desired NanoLucR-CK2α fusion protein to generate a BRET reporter complex. […] Donor emission wavelength (450 nm) and acceptor emission wavelength (610 nm or 630 nm) were measured on the Envision (Perkin-Elmer) and BRET ratio calculated for data analysis: BRET Ratio=(Acceptorsample/Donorsample)×1,000. • 7.

Structure (SMILES): O=C(CCNCc1ccc(-c2ccccc2)c(Cl)c1)NCCCNc1cc(-n2cncn2)cc2[nH]ncc12 [Example 4, N-(3-((6-(1H-1,2,4-triazol-1-yl)-1H-indazol-4-yl)amino)propyl)-3-(((2-chloro-[1,1′-biphenyl]-4-yl)methyl)amino)propanamide]
- IC50 (CK2α): 3.63 nM
- IC50 (CLK2): 1010 nM
- IC50 (intracellular CK2α): 242 nM

Structure (SMILES): O=C(CCNCc1ccc(OC(F)(F)F)c(Cl)c1)NCCCNc1cc(-c2ccncc2)cc2[nH]ncc12 [Example 5, 3-((3-Chloro-4-(trifluoromethoxy)benzyl)amino)-N-(3-((6-(pyridin-4-yl)-1H-indazol-4-yl)amino)propyl)propanamide]
- IC50 (CK2α): 2.15 nM
- IC50 (CLK2): 306 nM
- IC50 (intracellular CK2α): 240 nM

Structure (SMILES): O=C(CCNCc1ccc(-c2ccccc2)c(Cl)c1)NCCCNc1cc(-c2ccncc2)cc2[nH]nnc12 [Example 8, 3-(((2-chloro-[1,1′-biphenyl]-4-yl)methyl)amino)-N-(3-((6-(pyridin-4-yl)-1H-benzo[d][1,2,3]triazol-4-yl)amino)propyl)propanamide]
- IC50 (CK2α): 0.62 nM
- IC50 (CLK2): 1100 nM
- IC50 (intracellular CK2α): 304 nM

Structure (SMILES): O=C(CCNCc1ccc(-c2ccccc2)c(Cl)c1)NCCC(=O)Nc1cc(-n2cnnc2)cc2[nH]ncc12 [Example 12, N-(6-(4H-1,2,4-triazol-4-yl)-1H-indazol-4-yl)-3-(3-(((2-chloro-[1,1′-biphenyl]-4-yl)methyl)amino)propanamido)propanamide]
- IC50 (CK2α): 0.6 nM
- IC50 (CLK2): 612 nM
- IC50 (intracellular CK2α): 6830 nM

Structure (SMILES): O=C(CCNCc1cccc(Cl)c1)NCCCNc1cc(-n2cnnc2)cc2[nH]ncc12 [Example 13, N-(3-((6-(4H-1,2,4-triazol-4-yl)-1H-indazol-4-yl)amino)propyl)-3-((3-chlorobenzyl)amino)propanamide]
- IC50 (CK2α): 1.43 nM
- IC50 (CLK2): 51.7 nM
- IC50 (intracellular CK2α): 3890 nM

Structure (SMILES): Clc1cc(CNCCc2cn(CCNc3cc(-n4cnnc4)cc4[nH]ncc34)nn2)ccc1-c1ccccc1 [Example 14, N-(2-(4-(2-(((2-chloro-[1,1′-biphenyl]-4-yl)methyl)amino)ethyl)-1H-1,2,3-triazol-1-yl)ethyl)-6-(4H-1,2,4-triazol-4-yl)-1H-indazol-4-amine]
- IC50 (CK2α): 1.6 nM
- IC50 (CLK2): 322 nM
- IC50 (intracellular CK2α): 2120 nM

Structure (SMILES): O=C(Cc1cnc(CCNCc2ccc(OC(F)(F)F)c(Cl)c2)o1)Nc1cc(-n2cnnc2)cc2[nH]ncc12 [Example 15, N-(6-(4H-1,2,4-triazol-4-yl)-1H-indazol-4-yl)-2-(2-(2-((3-chloro-4-(trifluoromethoxy)benzyl)amino)ethyl)oxazol-5-yl)acetamide]
- IC50 (CK2α): 27.1 nM
- IC50 (CLK2): 1830 nM
- IC50 (intracellular CK2α): > 50000 nM

Structure (SMILES): FC(F)(F)Oc1ccc(CNCCc2nnc(CCNc3cc(-n4cnnc4)cc4[nH]ncc34)[nH]2)cc1Cl [Example 16, N-(2-(5-(2-((3-chloro-4-(trifluoromethoxy)benzyl)amino)ethyl)-4H-1,2,4-triazol-3-yl)ethyl)-6-(4H-1,2,4-triazol-4-yl)-1H-indazol-4-amine]
- IC50 (CK2α): 14.1 nM
- IC50 (CLK2): 371 nM
- IC50 (intracellular CK2α): 3400 nM

Structure (SMILES): O=C(O)c1cc(NCCCCNCCCCNCc2ccc(-c3ccccc3)c(Cl)c2)c2cn[nH]c2c1 [Example 60, 4-((4-((4-(((2-chloro-[1,1′-biphenyl]-4-yl)methyl)amino)butyl)amino)butyl)amino)-1H-indazole-6-carboxylic acid]
- IC50 (CK2α): 215 nM
- IC50 (CLK2): 30200 nM

Other lines, results leading:

- IC50 (CK2α): 1.38 nM
- IC50 (CLK2): 226 nM
- IC50 (intracellular CK2α): 124 nM
Structure (SMILES): O=C(CCNCc1ccc(-c2ccccc2)c(Cl)c1)NCCCNc1cc(-c2ccncc2)cc2[nH]ncc12 [Example 1, 3-(((2-Chloro-[1,1′-biphenyl]-4-yl)methyl)amino)-N-(3-((6-(pyridin-4-yl)-1H-indazol-4-yl)amino)propyl)propanamide]

- IC50 (CK2α): 12.5 nM
- IC50 (CLK2): 1230 nM
- IC50 (intracellular CK2α): 5880 nM
Structure (SMILES): NC(=O)c1cc(NCCCNC(=O)CCNCc2ccc(-c3ccccc3)c(Cl)c2)c2cn[nH]c2c1 [Example 2, 4-((3-(3-(((2-chloro-[1,1′-biphenyl]-4-yl)methyl)amino)propanamido)propyl)amino)-1H-indazole-6-carboxamide]

- IC50 (CK2α): 0.77 nM
- IC50 (CLK2): 33.4 nM
- IC50 (intracellular CK2α): 135 nM
Structure (SMILES): O=C(CCNCc1ccc(-c2ccccc2)c(Cl)c1)NCCCNc1cc(-c2cn[nH]c2)cc2[nH]ncc12 [Example 3, N-(3-((6-(1H-pyrazol-4-yl)-1H-indazol-4-yl)amino)propyl)-3-(((2-chloro-[1,1′-biphenyl]-4-yl)methyl)amino)propanamide]

- IC50 (CK2α): 0.19 nM
- IC50 (CLK2): 235 nM
- IC50 (intracellular CK2α): 50.8 nM
Structure (SMILES): O=C(CCNCc1ccc(-c2ccccc2)c(Cl)c1)NCCCNc1cc(-c2ccnnc2)cc2[nH]ncc12 [Example 6, 3-(((2-chloro-[1,1′-biphenyl]-4-yl)methyl)amino)-N-(3-((6-(pyridazin-4-yl)-1H-indazol-4-yl)amino)propyl)propanamide]

- IC50 (CK2α): 0.25 nM
- IC50 (CLK2): 69.8 nM
- IC50 (intracellular CK2α): 146 nM
Structure (SMILES): N#Cc1n[nH]cc1-c1cc(NCCCNC(=O)CCNCc2ccc(-c3ccccc3)c(Cl)c2)c2cn[nH]c2c1 [Example 7, 3-(((2-chloro-[1,1′-biphenyl]-4-yl)methyl)amino)-N-(3-((6-(3-cyano-1H-pyrazol-4-yl)-1H-indazol-4-yl)amino)propyl)propanamide]

- IC50 (CK2α): 7.69 nM
- IC50 (CLK2): 568 nM
- IC50 (intracellular CK2α): 8550 nM
Structure (SMILES): Cc1nc(-c2cc(NCCCNC(=O)CCNCc3ccc(-c4ccccc4)c(Cl)c3)c3cn[nH]c3c2)c[nH]1 [Example 9, 3-(((2-chloro-[1,1′-biphenyl]-4-yl)methyl)amino)-N-(3-((6-(2-methyl-1H-imidazol-4-yl)-1H-indazol-4-yl)amino)propyl)propanamide]

- IC50 (CK2α): 6.96 nM
- IC50 (CLK2): 132 nM
- IC50 (intracellular CK2α): 449 nM
Structure (SMILES): N#Cc1cc(NCCCNC(=O)CCNCc2ccc(-c3ccccc3)c(Cl)c2)c2cn[nH]c2c1 [Example 10, 3-(((2-chloro-[1,1′-biphenyl]-4-yl)methyl)amino)-N-(3-((6-cyano-1H-indazol-4-yl)amino)propyl)propanamide]

- IC50 (CK2α): 0.29 nM
- IC50 (CLK2): 31.7 nM
- IC50 (intracellular CK2α): 249 nM
Structure (SMILES): O=C(CCNCc1ccc(-c2ccccc2)c(Cl)c1)NCCCNc1cc(-n2cnnc2)cc2[nH]ncc12 [Example 11, N-(3-((6-(4H-1,2,4-triazol-4-yl)-1H-indazol-4-yl)amino)propyl)-3-(((2-chloro-[1,1′-biphenyl]-4-yl)methyl)amino)propanamide]
